Numbering of substitutions follows the chain as printed. In names and notes the source's numbering stands. Like-named read-outs stand apart in the source and are kept apart here. Each block holds one molecule with its values, some of them ahead of it.
Experiments:
DnaA = biological target: T1, DnaA (Escherichia coli, UniProt P03004, H136A); test: nucleotide binding to purified DnaA (method not described)
T1 construct: full-length wild-type DnaA, overproduced from pKA234 (arabinose-inducible pING derivative) in E. coli KA450 and purified; no tag mentioned
T1 sequence (P03004 1-467 H136A): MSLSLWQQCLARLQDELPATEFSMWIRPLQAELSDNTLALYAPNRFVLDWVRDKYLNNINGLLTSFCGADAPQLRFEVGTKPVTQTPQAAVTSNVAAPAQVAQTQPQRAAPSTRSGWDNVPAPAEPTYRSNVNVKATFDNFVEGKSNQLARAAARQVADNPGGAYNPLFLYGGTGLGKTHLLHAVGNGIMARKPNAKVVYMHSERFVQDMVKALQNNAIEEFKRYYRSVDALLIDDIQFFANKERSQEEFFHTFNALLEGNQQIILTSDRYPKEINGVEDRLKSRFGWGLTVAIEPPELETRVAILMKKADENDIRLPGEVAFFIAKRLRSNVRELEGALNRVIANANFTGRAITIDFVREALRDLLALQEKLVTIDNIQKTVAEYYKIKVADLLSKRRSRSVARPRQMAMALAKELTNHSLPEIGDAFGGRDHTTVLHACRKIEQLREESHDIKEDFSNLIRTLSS
Source text: (§1) nucleotide binding to purified DnaA (method not described) on DnaA (wild-type DnaA)

DnaA (wild-type DnaA) = biological target: T2, DnaA (wild-type DnaA) (Escherichia coli, UniProt P03004); test: as above
T2 construct: full-length wild-type DnaA, overproduced from pKA234 (arabinose-inducible pING derivative) in E. coli KA450 and purified; no tag mentioned
T2 sequence (P03004 1-467): T1 sequence (P03004 1-467 H136A) with A136H
Source text: as §1

[1] = biological target: T3, DnaB replicative helicase (E. coli, UniProt P0ACB0 1-471); test: pull-down; biotinylated oriC DNA (bio-oriC, 419 bp, 0.1 pmol) incubated on ice for 10 min with 5 pmol ATP-DnaA and different amounts of DnaB in buffer G (20 mM HEPES-KOH pH 7.6, 5 mM magnesium acetate, 1 mM EDTA, 10% glycerol, 0.1% Triton X-100, 4 mM DTT) with 1 mM ATP; recovered with streptavidin-coated beads; washed once with buffer G without KCl; silver staining with quantitative standards; no DnaC; conditions: both partners purified
T3 construct: DnaB replicative helicase, Escherichia coli; No tag is named for the DnaB of the bio-oriC pull-down; The Form I* assay used His-DnaB and the His-DnaB pull-down used His-DnaB K236A; these forms are named in the readout of the functional rows; also called DnaB helicase

Molecule: Nc1ncnc2c1ncn2[C@@H]1O[C@H](COP(=O)(O)OP(=O)(O)O)[C@@H](O)[C@H]1O [ADP]
Kd (DnaA; read-out: KD (nM) / ADP): 50 nM
Kd (DnaA (wild-type DnaA); read-out: KD (nM) / ADP): 35 nM

Molecule: Nc1ncnc2c1ncn2[C@@H]1O[C@H](COP(=O)(O)OP(=O)(O)OP(=O)(O)O)[C@@H](O)[C@H]1O [ATP]
Kd (DnaA; read-out: KD (nM) / ATP): 21 nM
Kd (DnaA (wild-type DnaA); read-out: KD (nM) / ATP): 24 nM

binding result [1]: binds
B1: wild-type DnaA (natural protein, E. coli, UniProt P03004 1-467, looked up)
chain: T1 sequence (P03004 1-467 H136A) with A136H
notes: DnaA, chromosomal replication initiator protein, Escherichia coli; wild-type dnaA-coding region of pKA234; also called WT; ATP-DnaA; source: E. coli KA450, overproduced from pKA234, purified

binding result [1]: binds
B2: DnaA H136A (natural protein, E. coli, UniProt P03004 1-467, looked up)
chain: T1 sequence (P03004 1-467 H136A)
notes: DnaA, Escherichia coli, with the substitution H136A in domain III; pH136A is a derivative of pKA234; also called DnaA H136A mutant protein; source: E. coli KA450, overproduced from pH136A, purified

Reference: paper PMC6127211, “The DnaA AAA+ Domain His136 Residue Directs DnaB Replicative Helicase to the Unwound Region of the Replication Origin, oriC” (Frontiers in Microbiology, 2018)
